Patent publication US20240350454A1, “BACTERIAL EFFLUX PUMP INHIBITORS AND METHODS OF USE” (THE REGENTS OF THE UNIVERSITY OF COLORADO, priority 2021, published 2024)

Columns and labels:
Type in all cases: cell-based
[1] = test system: S. enterica serovar Typhimurium SL1344 sifB::gfp in RAW264.7 macrophages; assay: SAFIRE assay, intracellular bacterial load in macrophages; settings: Salmonella enterica
Protocol: The following experiments were performed using the SAFIRE assay described in U.S. Publication 2020/0022961, which is incorporated by reference in its entirety for all purposes. SAFIRE (Screen for Anti-infectives using Fluorescence microscopy of IntracellulaR Enterobacteriaceae) uses cell culture as a surrogate to identify compounds that prevent intracellular replication of a model Gram-negative bacterial human pathogen. The method identifies compounds that prevent bacterial growth in broth culture and compounds that decrease the load of Gram-negative bacteria inside of macrophages at concentrations≤10 μM but have no effect on bacterial growth in standard Mueller Hinton broth (MHB) at 100 μM. Thus, SAFIRE enables the discovery of compounds that are effective against Gram-negative bacteria in host cells and in whole animals, whether or not they are antibacterial in broth.
The wild-type S. enterica serovar Typhimurium strain, SL1344, was initially isolated from the blood of an infected calf. For screening and validation in macrophages, SL1344 sifB::gfp was grown in Luria-Bertani Broth (LB) with 30 μg/ml streptomycin and 30 μg/ml kanamycin to saturation overnight, diluted to an OD of 0.001 and frozen in 100 μL aliquots in 20% glycerol at −80° C. Prior to infection, aliquots were grown in 5 mL cultures of LB with 30 μg/ml streptomycin and 30 μg/ml kanamycin for 18 hours at 37° C. with aeration. Bacterial strains were routinely grown in LB with antibiotics: 30 μg/ml streptomycin, 30 μg/ml kanamycin, 50 μg/ml ampicillin, 10 μg/ml tetracycline, and/or 1.15 μg/ml meropenem. The acrAB::kan and macAB::kan strains were constructed according to known methods. S. enterica subsp. enterica, serovar Typhimurium strain S10801, NR-22067 is a multidrug resistant isolate from a calf with sepsis. This strain and others as indicated were obtained through BEI resources, NIAID, NIH.
(§1) Murine macrophage-like RAW 264.7 cells and HeLa human epithelial cells were obtained from the American Type Tissue Collection. BMDMs were isolated as previously described. Briefly, marrow was flushed from the femurs of 1- to 4-month-old 129SvEvTac mice (Taconic Laboratories) bred in-house. Mononuclear cells were separated using Histopaque-1083 (Sigma), washed, and directly seeded into assay plates at 1×10^5 cells/ml in complete medium supplemented with 35% conditioned media from 3T3 cells expressing MCSF. Media were refreshed three days later. After 1 week, media were replaced with 100 μL fresh media and cells were infected as described below. All three types of cells were grown in DMEM high glucose (Sigma) supplemented with 10% fetal bovine serum, 2 mM L-glutamine, 1 mM sodium pyruvate, 10 mM HEPES, and 50 μMβ-mercaptoethanol. Cells were maintained in a 5% CO2 humidified atmosphere at 37° C. For screening, frozen aliquots of RAW 264.7 were thawed and allowed to expand for three days prior to seeding; other experiments were performed with cultures between passages four and 20.
SAFIRE—RAW264.7 macrophages (7×103 in 40 μL or 5×104 in 100 μL) were seeded, respectively, in 384- or 96-well black-walled glass-bottomed plates (Brooks Automation). Twenty four hours post-seeding, bacteria in 20 or 50 μL PBS were added to a final concentration of 1×10^7 CFU/mL, conditions yielding infection of approximately 70% of macrophages at 18 hours post-infection with minimal macrophage toxicity. The sifB::gfp bacterial reporter strain was used to minimize green signal from extracellular bacteria. […] At two hours post-infection, 200 or 500 nL compound was added using a pin tool (CyBio) to yield a final concentration of 25 μM. Each assay plate included rifampicin and DMSO controls. In some experiments, media were removed and replaced with fresh media containing 40 μg/mL gentamicin and increasing concentrations of the compounds of the disclosure. […]

RAW264.7 macrophages = settings: mouse, 16 h
Description: as §1
SAFIRE—RAW264.7 macrophages (7×103 in 40 μL or 5×104 in 100 μL) were seeded, respectively, in 384- or 96-well black-walled glass-bottomed plates (Brooks Automation). Twenty four hours post-seeding, bacteria in 20 or 50 μL PBS were added to a final concentration of 1×10^7 CFU/mL, conditions yielding infection of approximately 70% of macrophages at 18 hours post-infection with minimal macrophage toxicity. The sifB::gfp bacterial reporter strain was used to minimize green signal from extracellular bacteria. […] At two hours post-infection, 200 or 500 nL compound was added using a pin tool (CyBio) to yield a final concentration of 25 μM. Each assay plate included rifampicin and DMSO controls. In some experiments, media were removed and replaced with fresh media containing 40 μg/mL gentamicin and increasing concentrations of the compounds of the disclosure. At 17.5 hours post-infection, PBS containing MitoTracker Red CMXRos (Life Technologies) was added to a final concentration of 300 nM or 100 nM, for 384- or 96-well, respectively. Thirty minutes later, 16% paraformaldehyde was added to a final concentration of […] and incubated at room temperature for 15 minutes. Wells were washed twice with PBS and stained for 20 minutes with 1 μMDAPI; wells were washed twice and stored in 90% glycerol in PBS until imaging. The Z′-factor of the screening platform was 0.59 and 0.48 in 96-well and 384-well plates, respectively, within published ranges for complicated cell-based screens.
In addition, toxicity was measured according the following procedure: 1) analyzing macrophage cell morphology; and 2) using MATLAB to count cells (cells that lift up and float after treatment are not within the appropriate Z plane to be counted, and thus are considered dead). If 70% of the cells are adherent (as measured by comparing the number of cells before and after treatment), the compound is considered not toxic. Compounds that pass #1 and #2 above are considered to have a toxicity “>50 μM”. […]

E. coli BAA-2340 = assay: Chloramphenicol MIC with selected compound in MHB; settings: Escherichia coli, BAA2340, antibiotic alone (row None), MHB
Protocol: (§2) MIC for the antibiotic alone (i.e., in the absence of the disclosed compounds) is provided in the first row labeled “None”. […] […] At this concentration (50 μg/mL), the compounds of the disclosure lacked intrinsic antibacterial activity but a significant improvement in efficacy was still observed. Thus, the compounds of the disclosure may be used to potentiate the activity of antibiotics that have lost their efficacy due to efflux.

[2] = test system: P. aeruginosa Focus MB0477; assay: Chloramphenicol MIC with selected compound in MHB; settings: Pseudomonas aeruginosa, FOCUSMB0477, antibiotic alone (row None), MHB
Protocol: as §2

A. baumannii MB306 = assay: Chloramphenicol MIC with selected compound in MHB; settings: Acinetobacter baumannii, antibiotic alone (row None), MHB
Description: (§3) MIC for the antibiotic alone (i.e., in the absence of the disclosed compounds) is provided in the first row labeled “None”. […] […] […] Thus, the compounds of the disclosure may be used to potentiate the activity of antibiotics that have lost their efficacy due to efflux.

A. baumannii MB309 = assay: Chloramphenicol MIC with selected compound in MHB; settings: Acinetobacter baumannii, antibiotic alone (row None), MHB
Description: as §3

E. cloacae BAA-2341 = assay: Chloramphenicol MIC with selected compound in MHB; settings: Enterobacter cloacae, BAA2341, antibiotic alone (row None), MHB
Description: as §3

K. pneumoniae BAA-2342 = assay: Chloramphenicol MIC with selected compound in MHB; settings: Klebsiella pneumoniae, BAA2342, antibiotic alone (row None), MHB
Description: as §3

E. Cloacae MB315 = assay: PMB MIC with selected compound in MHB; settings: Enterobacter cloacae, selected compound 50 μg/mL in MHB
Protocol: as §2

K. pneumoniae BAA-1705 = assay: Ciprofloxacin MIC with selected compound in MHB; settings: Klebsiella pneumoniae, BAA1705, read-out: Ciprofloxacin MIC, antibiotic alone (row None), MHB
Protocol: as §2

Work on `NC1CCN(CC(O)COc2cccc(C(F)(F)F)c2)CC1` (stereo not shown) [Compound 12] yielded an IC50 [1] of less than 1000 nM and a Toxicity (RAW264.7 macrophages) greater than 50 µM.
`N[C@@H]1CCN(CC(O)COc2ccc(Cl)c(Cl)c2)C1` (stereo partly shown) [Compound 9] gave an IC50 [1] of less than 1000 nM and a Toxicity (RAW264.7 macrophages) greater than 50 µM.
Compound `O=C(N[C@H](CO)[C@H](O)c1ccc([N+](=O)[O-])cc1)C(Cl)Cl` [Chloramphenicol, chloramphenicol] has an MIC (E. coli BAA-2340) of 64 µg/mL, an MIC [2] of 64 µg/mL and an MIC (A. baumannii MB306) greater than 64 µg/mL. It also gave an MIC (A. baumannii MB309) greater than 64 µg/mL, an MIC (E. cloacae BAA-2341) of 16 µg/mL and an MIC (K. pneumoniae BAA-2342) of 64 µg/mL.
With `NC1CCN(C[C@@H](O)COc2ccc(Cl)c(Cl)c2)C1` (stereo partly shown) [Compound 3] the IC50 [1] was less than 1000 nM, the Toxicity (RAW264.7 macrophages) was greater than 50 µM and the MIC (E. Cloacae MB315) was 32 µg/mL.
`CN(CCCCN)CC(O)COc1cc(Cl)cc(Cl)c1` (stereo not shown) [Compound 19] showed an IC50 [1] of less than 1000 nM, a Toxicity (RAW264.7 macrophages) of less than 50 but >25 μM and an MIC (E. Cloacae MB315) of 32 µg/mL.
For `NC1CCN(CC(O)COc2c(Cl)cccc2Cl)CC1` (stereo not shown) [Compound 8], the IC50 [1] was less than 1000 nM and the Toxicity (RAW264.7 macrophages) was greater than 50 µM.
Work on `NC1CCN(CC(O)COc2ccc(Cl)cc2)CC1` (stereo not shown) [Compound 6] yielded an IC50 [1] of less than 1000 nM and a Toxicity (RAW264.7 macrophages) greater than 50 µM.
Compound `OC(CN[C@H]1[C@@H]2CNC[C@@H]21)COc1cc(Cl)cc(Cl)c1` (stereo partly shown) [Compound 18] has an IC50 [1] of less than 1000 nM, a Toxicity (RAW264.7 macrophages) greater than 50 µM and an MIC (E. Cloacae MB315) of 1 µg/mL.
`NC1CCN(CC(O)COc2ccc(Cl)c(Cl)c2)C1` (stereo not shown) [Compound 1] was tested, and the IC50 [1] was less than 1000 nM, the Toxicity (RAW264.7 macrophages) was greater than 50 µM and the MIC (E. Cloacae MB315) was 32 µg/mL.
`N[C@@H]1CCN(C[C@H](O)COc2ccc(Cl)c(Cl)c2)C1` [Compound 13] showed an IC50 [1] of less than 1000 nM and a Toxicity (RAW264.7 macrophages) greater than 50 µM.
In the case of `OC(COc1ccc(Cl)c(Cl)c1)CN1CCC(n2ccnc2)CC1` (stereo not shown) [Compound 5], the IC50 [1] is reported as less than 1000 nM and the Toxicity (RAW264.7 macrophages) is reported as greater than 50 µM.
For `O=C(O)c1cn(C2CC2)c2cc(N3CCNCC3)c(F)cc2c1=O` [Ciprofloxacin, ciprofloxacin], the MIC (K. pneumoniae BAA-1705) was greater than 64 µg/mL.
